# Data: patent US20090042874A1, “ANTIDEPRESSANT HETEROARYL DERIVATIVES OF HETEROCYCLE-FUSED BENZODIOXANS” (WYETH, priority 2007, published 2009)
# Structures can show the parent of a compound that is named as a salt.
# Tests used:
# serotonin transporter = target: T1, serotonin transporter (Rattus norvegicus, UniProt P31652); test: Displacement of 3H-paroxetine from male rat frontal cortical membranes (serotonin transporter affinity); format: binding; conditions: 3H-paroxetine displacement, read-out: 5-HT Transporter Affinity Ki
# T1 construct: displace ^3H-paroxetine from male rat frontal cortical membranes; from tissue; host or cells: male rat frontal cortex membranes
# Excerpt: Affinity of Compounds of the Invention for the Serotonin Transporter
# human 5HT1A receptors = target: T2, human 5HT1A receptors (Homo sapiens, UniProt P08908); test: Displacement of [3H] 8-OH-DPAT from 5HT1A receptor, CHO cells stably transfected with human 5HT1A receptors; format: binding; conditions: [3H] 8-OH-DPAT displacement, CHO cells with human 5HT1A; read-out: 5HT1A Receptor Affinity Ki
# T2 construct: expressed in transfected cells; host or cells: CHO cells
# T2 sequence (P08908 1-422): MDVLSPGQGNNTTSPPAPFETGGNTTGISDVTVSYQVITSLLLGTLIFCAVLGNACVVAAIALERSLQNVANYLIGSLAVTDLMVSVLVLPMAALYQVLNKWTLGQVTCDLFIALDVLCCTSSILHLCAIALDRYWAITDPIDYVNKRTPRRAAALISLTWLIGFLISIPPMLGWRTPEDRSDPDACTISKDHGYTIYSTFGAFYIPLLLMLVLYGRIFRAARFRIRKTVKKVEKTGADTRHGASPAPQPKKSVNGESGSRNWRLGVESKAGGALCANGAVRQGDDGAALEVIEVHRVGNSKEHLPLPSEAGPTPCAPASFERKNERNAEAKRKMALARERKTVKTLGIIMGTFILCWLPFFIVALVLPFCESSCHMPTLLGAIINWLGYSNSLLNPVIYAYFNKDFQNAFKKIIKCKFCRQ
# Excerpt: High affinity for the serotonin 5HT1A receptor was established by testing the claimed compound's ability to displace [^3H] 8-OH-DPAT (dipropylamino-tetralin) from the 5HT1A serotonin receptor following a modification of the procedure of Hall et al., J. Neurochem. 44, 1685 (1985) which utilizes CHO cells stably transfected with human 5HT1A receptors.
# T1 sequence (P31652 whole entry): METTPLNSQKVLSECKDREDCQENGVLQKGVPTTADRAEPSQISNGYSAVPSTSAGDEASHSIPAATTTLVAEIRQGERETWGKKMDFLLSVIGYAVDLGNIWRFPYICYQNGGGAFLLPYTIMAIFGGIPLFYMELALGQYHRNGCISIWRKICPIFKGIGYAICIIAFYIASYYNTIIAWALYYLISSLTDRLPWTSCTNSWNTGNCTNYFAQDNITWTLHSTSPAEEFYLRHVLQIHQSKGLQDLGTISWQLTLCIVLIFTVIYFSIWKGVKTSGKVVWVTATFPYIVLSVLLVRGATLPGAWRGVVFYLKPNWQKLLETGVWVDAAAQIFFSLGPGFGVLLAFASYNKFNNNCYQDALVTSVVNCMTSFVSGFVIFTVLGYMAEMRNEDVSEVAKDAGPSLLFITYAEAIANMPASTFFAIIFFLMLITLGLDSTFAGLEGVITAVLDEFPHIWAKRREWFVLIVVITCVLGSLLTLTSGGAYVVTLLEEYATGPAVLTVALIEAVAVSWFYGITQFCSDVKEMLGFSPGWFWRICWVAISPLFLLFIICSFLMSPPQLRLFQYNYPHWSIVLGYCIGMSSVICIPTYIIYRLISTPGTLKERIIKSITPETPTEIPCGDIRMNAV
SMILES,melting point,Ki (serotonin transporter) [nM],Ki (human 5HT1A receptors) [nM]
"Cc1ccc2c3c(ccc2n1)OC[C@H](CN1CCC(Oc2ccc4c(c2)NC(=O)CO4)CC1)O3 (as salt: hydrochloride) [Example 1, 6-[(1-{[(2S)-8-methyl-2,3-dihydro[1,4]dioxino[2,3-f]quinolin-2-yl]methyl}piperidin-4-yl)oxy]-2H-1,4-benzoxazin-3(4H)-one dihydrochloride salt]",216 to 219 °C (dec.),–,–
"Cc1ccc2c3c(ccc2n1)OC[C@H](CNCCCCOc1ccc2c(c1)NC(=O)CO2)O3 (as salt: hydrochloride) [Example 6, 6-[4-({[(2S)-8-Methyl-2,3-dihydro[1,4]dioxino[2,3-f]quinolin-2-yl]methyl}amino)butoxy]-2H-1,4-benzoxazin-3(4H)-one dihydrochloride salt]",143 °C (dec.),–,–
"Cc1ccc2c3c(ccc2n1)OC[C@H](CNCCCOc1ccc2c(c1)NC(=O)CO2)O3 (as salt: hydrochloride) [Example 7, 6-[3-({[(2S)-8-Methyl-2,3-dihydro[1,4]dioxino[2,3-f]quinolin-2-yl]methyl}amino)propoxy]-2H-1,4-benzoxazin-3(4H)-one dihydrochloride salt]",184 °C (dec.),–,–
"Cc1ccc2c3c(ccc2n1)OC[C@H](CN1CC[C@H](Oc2ccc4c(c2)NC(=O)CO4)C1)O3 (as salt: hydrochloride) [Example 8, 6-{[(3S)-1-{[(2S)-8-Methyl-2,3-dihydro[1,4]dioxino[2,3-f]quinolin-2-yl]methyl}pyrrolidin-3-yl]oxy}-2H-1,4-benzoxazin-3(4H)-one dihydrochloride salt]",183 °C (dec.),–,–
"Cc1ccc2c3c(ccc2n1)OC[C@H](CN1CC[C@@H](Oc2ccc4c(c2)NC(=O)CO4)C1)O3 (as salt: hydrochloride) [Example 9, 6-{[(3R)-1-{[(2S)-8-Methyl-2,3-dihydro[1,4]dioxino[2,3-f]quinolin-2-yl]methyl}pyrrolidin-3-yl]oxy}-2H-1,4-benzoxazin-3(4H)-one dihydrochloride salt]",183 °C (dec.),–,–
"CNCCCCOc1ccc2c(c1)NC(=O)CO2 (as salt: hydrochloride) [Example 10, 6-[4-(Methylamino)butoxy]-2H-1,4-benzoxazin-3(4H)-one hydrochloride salt]",210 to 212 °C,–,–
"CNCCCOc1ccc2c(c1)NC(=O)CO2 (as salt: hydrochloride) [Example 11, 6-[3-(Methylamino)propoxy]-2H-1,4-benzoxazin-3(4H)-one]",193 to 194 °C,–,–
"Cc1ccc2c3c(ccc2n1)OC[C@H](CN1CCCC(Cc2ccc4c(c2)NC(=O)CO4)C1)O3 (stereo partly drawn) (as salt: hydrochloride) [Example 16, 6-[(1-{[(2S)-8-Methyl-2,3-dihydro[1,4]dioxino[2,3-f]quinolin-2-yl]methyl}piperidin-3-yl)methyl]-2H-1,4-benzoxazin-3(4H)-one dihydrochloride salt]",200 to 205 °C,–,–
"Cc1ccc2c3c(ccc2n1)OC[C@H](CNC1CCN(c2ccc4c(c2)NC(=O)CO4)CC1)O3 (as salt: hydrochloride) [Example 18, 6-(4-{[(8-methyl-2,3-dihydro[1,4]dioxino[2,3-f]quinolin-2-yl)methyl]amino}piperidin-1-yl)-2H-1,4-benzoxazin-3(4H)-one dihydrochloride salt]",240 °C (dec.),–,–
"Cc1ccc2c3c(ccc2n1)OC[C@H](CNCCCCOc1ccc2c(c1)NC(=O)CO2)O3 [Example 6, 6-[4-({[(2S)-8-Methyl-2,3-dihydro[1,4]dioxino[2,3-f]quinolin-2-yl]methyl}amino)butoxy]-2H-1,4-benzoxazin-3(4H)-one dihydrochloride salt]",–,11.9,0.25
"Cc1ccc2c3c(ccc2n1)OC[C@H](CNCCCOc1ccc2c(c1)NC(=O)CO2)O3 [Example 7, 6-[3-({[(2S)-8-Methyl-2,3-dihydro[1,4]dioxino[2,3-f]quinolin-2-yl]methyl}amino)propoxy]-2H-1,4-benzoxazin-3(4H)-one dihydrochloride salt]",–,–,0.1
"Cc1ccc2c3c(ccc2n1)OC[C@H](CN1CC[C@H](Oc2ccc4c(c2)NC(=O)CO4)C1)O3 [Example 8, 6-{[(3S)-1-{[(2S)-8-Methyl-2,3-dihydro[1,4]dioxino[2,3-f]quinolin-2-yl]methyl}pyrrolidin-3-yl]oxy}-2H-1,4-benzoxazin-3(4H)-one dihydrochloride salt]",–,18.2,1.49
"Cc1ccc2c3c(ccc2n1)OC[C@H](CN1CC[C@@H](Oc2ccc4c(c2)NC(=O)CO4)C1)O3 [Example 9, 6-{[(3R)-1-{[(2S)-8-Methyl-2,3-dihydro[1,4]dioxino[2,3-f]quinolin-2-yl]methyl}pyrrolidin-3-yl]oxy}-2H-1,4-benzoxazin-3(4H)-one dihydrochloride salt]",–,4.5,3.53
"CNCCCCOc1ccc2c(c1)NC(=O)CO2 [Example 10, 6-[4-(Methylamino)butoxy]-2H-1,4-benzoxazin-3(4H)-one hydrochloride salt]",–,58.5,–
"CNCCCOc1ccc2c(c1)NC(=O)CO2 [Example 11, 6-[3-(Methylamino)propoxy]-2H-1,4-benzoxazin-3(4H)-one]",–,81,–

# Second part, the compound after the results:
melting point,Ki (serotonin transporter) [nM],Ki (human 5HT1A receptors) [nM],SMILES
215 °C (dec.),–,–,"Cc1ccc2c3c(ccc2n1)OC[C@H](CN1CCC(Cc2ccc4c(c2)NC(=O)CO4)CC1)O3 (as salt: hydrochloride) [Example 2, 6-[(1-{[(2S)-8-Methyl-2,3-dihydro[1,4]dioxino[2,3-f]quinolin-2-yl]methyl}piperidin-4-yl)methyl]-2H-1,4-benzoxazin-3(4H)-one dihydrochloride]"
164 °C (dec.),–,–,"Cc1ccc2c3c(ccc2n1)OC[C@H](CN1CCC(Oc2ccc4c(c2)N(C)C(=O)CO4)CC1)O3 (as salt: hydrochloride) [Example 5, 4-Methyl-6-[(1-{[(2S)-8-methyl-2,3-dihydro[1,4]dioxino[2,3-f]quinolin-2-yl]methyl}piperidin-4-yl)oxy]-2H-1,4-benzoxazin-3(4H)-one dihydrochloride salt]"
205 to 208 °C,–,–,"Cc1ccc2c3c(ccc2n1)OC[C@H](CN1CCC(Cc2ccc4c(c2)N(C)C(=O)CO4)CC1)O3 (as salt: hydrochloride) [Example 12, 4-Methyl-6-[(1-{[(2S)-8-methyl-2,3-dihydro[1,4]dioxino[2,3-f]quinolin-2-yl]methyl}piperidin-4-yl)methyl]-2H-1,4-benzoxazin-3(4H)-one dihydrochloride salt]"
185 to 189 °C,–,–,"Cc1ccc2c3c(ccc2n1)OC[C@H](CN1CCC(CCc2ccc4c(c2)N(C)C(=O)CO4)CC1)O3 (as salt: hydrochloride) [Example 13, 4-Methyl-6-[2-(1-{[(2S)-8-methyl-2,3-dihydro[1,4]dioxino[2,3-f]quinolin-2-yl]methyl}piperidin-4-yl)ethyl]-2H-1,4-benzoxazin-3(4H)-one dihydrochloride salt]"
202 to 205 °C,–,–,"Cc1ccc2c3c(ccc2n1)OC[C@H](CN1CCC(CCc2ccc4c(c2)NC(=O)CO4)CC1)O3 (as salt: hydrochloride) [Example 14, 6-[2-(1-{[(2S)-8-Methyl-2,3-dihydro[1,4]dioxino[2,3-f]quinolin-2-yl]methyl}piperidin-4-yl)ethyl]-2H-1,4-benzoxazin-3(4H)-one dihydrochloride salt]"
249 to 251 °C,–,–,"Cc1ccc2c3c(ccc2n1)OC[C@H](CN1CCCC(Cc2ccc4c(c2)N(C)C(=O)CO4)C1)O3 (stereo partly drawn) (as salt: hydrochloride) [Example 15, 4-Methyl-6-[(1-{[(2S)-8-methyl-2,3-dihydro[1,4]dioxino[2,3-f]quinolin-2-yl]methyl}piperidin-3-yl)methyl]-2H-1,4-benzoxazin-3(4H)-one dihydrochloride salt]"
–,8.9,0.16,"Cc1ccc2c3c(ccc2n1)OC[C@H](CN1CCC(Cc2ccc4c(c2)NC(=O)CO4)CC1)O3 [Example 2, 6-[(1-{[(2S)-8-Methyl-2,3-dihydro[1,4]dioxino[2,3-f]quinolin-2-yl]methyl}piperidin-4-yl)methyl]-2H-1,4-benzoxazin-3(4H)-one dihydrochloride]"
–,11,0.54,"Cc1ccc2c3c(ccc2n1)OC[C@H](CN1CCC(Oc2ccc4c(c2)N(C)C(=O)CO4)CC1)O3 [Example 5, 4-Methyl-6-[(1-{[(2S)-8-methyl-2,3-dihydro[1,4]dioxino[2,3-f]quinolin-2-yl]methyl}piperidin-4-yl)oxy]-2H-1,4-benzoxazin-3(4H)-one dihydrochloride salt]"
–,6.65,0.29,"Cc1ccc2c3c(ccc2n1)OC[C@H](CN1CCC(Cc2ccc4c(c2)N(C)C(=O)CO4)CC1)O3 [Example 12, 4-Methyl-6-[(1-{[(2S)-8-methyl-2,3-dihydro[1,4]dioxino[2,3-f]quinolin-2-yl]methyl}piperidin-4-yl)methyl]-2H-1,4-benzoxazin-3(4H)-one dihydrochloride salt]"
